Results as given in the supplement of paper PMC5908809.

Tests used:
Assay in all cases: relative IC50 (inflection point of fitted viability curve, relative to fitted max inhibition); higher = less sensitive
Details in all cases: 72 h
KAI3 (IL-2 2.5 ng/mL) = test system: KAI3 (IL-2 2.5 ng/mL)
Procedure: (§1)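 Drug sensitivity and resistance testing: 5 concentrations over a 10,000-fold range, 72 h at 37 °C, viability by CellTiter-Glo normalised to DMSO and benzethonium chloride controls. IC50 is the inflection point of a logistic fit (min fixed at 0, max fitted), so it is relative to the fitted maximal inhibition. Kept only where fitted max inhibition is at least 50%.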

[1] = test system: normal primary NK cells, pool 3 (3 donors) (IL-2 2.5 ng/mL)
Procedure: as §1

IMC-1 (IL-2 20 ng/mL) = test system: IMC-1 (IL-2 20 ng/mL)
Procedure: as §1

NKL (IL-2 2.5 ng/mL) = test system: NKL (IL-2 2.5 ng/mL)
Procedure: as §1

[2] = test system: normal primary NK cells, pool 2 (3 donors) (IL-2 2.5 ng/mL)
Procedure: as §1

SNK-6 (IL-2 2.5 ng/mL) = test system: SNK-6 (IL-2 2.5 ng/mL)
Procedure: as §1

KHYG-1 (IL-2 2.5 ng/mL) = test system: KHYG-1 (IL-2 2.5 ng/mL)
Procedure: as §1

[3] = test system: normal primary NK cells, pool 1 (3 donors), resting (IL-2 0 ng/mL)
Procedure: as §1

YT (IL-2 2.5 ng/mL) = test system: YT (IL-2 2.5 ng/mL)
Procedure: as §1

[4] = test system: normal primary NK cells, pool 1 (3 donors) (IL-2 2.5 ng/mL)
Procedure: as §1

DERL-7 (IL-2 2.5 ng/mL) = test system: DERL-7 (IL-2 2.5 ng/mL)
Procedure: as §1

NK-92 (IL-2 2.5 ng/mL) = test system: NK-92 (IL-2 2.5 ng/mL)
Procedure: as §1

NK-YS (IL-2 2.5 ng/mL) = test system: NK-YS (IL-2 2.5 ng/mL)
Procedure: as §1

SMILES	relative IC50 (KAI3 (IL-2 2.5 ng/mL)) [nM]	relative IC50 [1] [nM]	relative IC50 (IMC-1 (IL-2 20 ng/mL)) [nM]	relative IC50 (NKL (IL-2 2.5 ng/mL)) [nM]	relative IC50 [2] [nM]	relative IC50 (SNK-6 (IL-2 2.5 ng/mL)) [nM]	relative IC50 (KHYG-1 (IL-2 2.5 ng/mL)) [nM]	relative IC50 [3] [nM]	relative IC50 (YT (IL-2 2.5 ng/mL)) [nM]	relative IC50 [4] [nM]	relative IC50 (DERL-7 (IL-2 2.5 ng/mL)) [nM]	relative IC50 (NK-92 (IL-2 2.5 ng/mL)) [nM]	relative IC50 (NK-YS (IL-2 2.5 ng/mL)) [nM]
Nc1nc(Cl)nc2c1ncn2[C@@H]1O[C@H](CO)[C@@H](O)[C@@H]1F [Clofarabine]	49.6	28	54.1	35.6	22.3	42.8	35	7.76	225	14.4	21.7	31.2	67
C[C@]12C=CC(=O)C=C1CC[C@@H]1[C@@H]2[C@@H](O)C[C@@]2(C)[C@H]1CC[C@]2(O)C(=O)CO [Prednisolone]	> 10000		> 10000	24.7	165			69.9		185	65.7	> 10000	
Nc1ccccc1NC(=O)c1ccc(CNc2nccc(-c3cccnc3)n2)cc1 [Mocetinostat]	313	738	291	166	703	242	340	443	1030	723	381	246	697
CN[C@@H](C)C(=O)N[C@H](C(=O)N1CCC[C@H]1c1nc(C(=O)c2ccc(F)cc2)cs1)C1CCCCC1 [LCL161]	2940	932			772		251	2520		1040	1390	2900	
CC(C)[C@H](C(=O)Nc1ccc(C(=O)NO)cc1)c1ccccc1 [AR-42]	77.2	527	289	219	430	241	240	297	527	367	331	129	540
COc1cccc2c1C(=O)c1c(O)c3c(c(O)c1C2=O)C[C@@](O)(/C(CO)=N/NC(=O)CCCCCN1C(=O)C=CC1=O)C[C@@H]3O[C@H]1C[C@H](N)[C@H](O)[C@H](C)O1 [Aldoxorubicin]	41.9	134	44.6	4.2	96.6	21.7	57.7	71.6	70.8	140	31.2	94.9	34.3
CO[C@H](C(=O)[C@@H](O)[C@@H](C)O)[C@@H]1Cc2cc3cc(O[C@H]4C[C@@H](O[C@@H]5C[C@@H](O)[C@H](O)[C@@H](C)O5)[C@H](O)[C@@H](C)O4)c(C)c(O)c3c(O)c2C(=O)[C@H]1O[C@H]1C[C@@H](O[C@@H]2C[C@@H](O)[C@@H](O[C@@H]3C[C@](C)(O)[C@H](O)[C@@H](C)O3)[C@@H](C)O2)[C@H](O)[C@@H](C)O1 [Plicamycin]	84.1	785	730	37.9	692	11.7	44.7	135	31.6	136	48.2	220	27.7
O=C(O)CCCc1ccc(N(CCCl)CCCl)cc1 [Chlorambucil]	1620	3180		1410	2960	2210	3160	1660		2830		3200	1930
Cn1c(CCCC(=O)O)nc2cc(N(CCCl)CCCl)ccc21 [Bendamustine]		2330		1420	2960	1680		3780		3960			2600
Cc1ccc(C(=O)Nc2ccc(CN3CCN(C)CC3)c(C(F)(F)F)c2)cc1C#Cc1cnc2cccnn12 [Ponatinib]	213	415	> 1000	96.1	335		270	55.3	121	240	156	425	
